# From US20150297490A1, “COMPOSITIONS, USES AND METHODS FOR TREATING OR PREVENTING DENTAL CARIES” (APOLLONIA HEALTH INC., priority 2012, published 2015)
# Values joined by “and” are separate entries in the source; they are usually repeats but may differ in a detail not shown here. Identical values can stand only once.
# Tested on: S. mutans UA159
# Assay: pH of culture medium of S. mutans biofilms after 1 minute incubation with test treatments
# Type: cell-based, Streptococcus mutans
# Conditions: for pH of the medium, Average: average of samples; for pH of the medium: individual samples 1-4; for drop in pH of the medium (initial pH minus pH at 6 or 8 hours): 6 and 8 hours after treatment, FIGS. 2 and 3; for statistical significance of pH results compared to the water control: p<0.05
# Excerpt: Amongst acidogenic bacteria, S. mutans is the principal etiological agent of caries in humans. Since there is a strong correlation between the proportion of S. mutans in dental plaque or in saliva relative to other bacterial species and the presence or risk of future outbreaks of dental caries, S. mutans in plaque or saliva may serve as an index for both dental caries activity state and dental caries risk or susceptibility. S. mutans UA159 strain was used in this Example.
# On the first day, biofilm growth was initiated by inoculating 10 mL of 100% Todd-Hewitt broth (THYE) with 0.3% yeast extract at a pH of 7.0 with UA159 to prepare overnight cultures. The samples were incubated in closed screw-cap tubes without agitation at 37° C. in an anaerobic chamber (5% CO2).
# On the second day, 1:100 dilutions were prepared by mixing 20 pl of the overnight UA159 cultures with ¼ THYE with 0.075% yeast extract supplemented with 0.1% sucrose to reach a final volume of 2 mL. The dilutions were then placed into the wells of 12-well plates.
# On the third day, the 2 mL of medium was removed from each well. 1.0 mL of test treatment solution, as described below, was added to each well, after which the wells were incubated for 1 minute on the bench at room temperature. Next, the test treatment solutions were removed, and 3.0 mL of undiluted THYE with 0.3% yeast extract and no sucrose was added to each well.
# If an internal pH control was required, fresh THYE was also added to two un-inoculated wells. During these steps, care was taken to avoid disrupting the biofilm.
# Immediately after 100% THYE with 0.3% yeast extract was added to the wells following incubation with the test treatments, the initial pH of the medium in each well was measured. Samples were incubated at 37° C. in an open air, bench-top incubator, and the pH of the medium was measured once an hour for the next 7-8 hours. Finally, the pH of the medium in each well was measured again the next morning.
Compound,"pH of the medium, Average (0 hours after treatment)",pH of the medium (0 hours after treatment),drop in pH of the medium (initial pH minus pH at 6 or 8 hours),"pH of the medium, Average (1 hour after treatment)",pH of the medium (1 hour after treatment),"pH of the medium, Average (2 hours after treatment)",pH of the medium (2 hours after treatment),"pH of the medium, Average (3 hours after treatment)",pH of the medium (3 hours after treatment),"pH of the medium, Average (4 hours after treatment)",pH of the medium (4 hours after treatment),"pH of the medium, Average (5 hours after treatment)",pH of the medium (5 hours after treatment),"pH of the medium, Average (6 hours after treatment)",pH of the medium (6 hours after treatment),"pH of the medium, Average (7 hours after treatment)",pH of the medium (7 hours after treatment),"pH of the medium, Average (8 hours after treatment)",pH of the medium (8 hours after treatment),statistical significance of pH results compared to the water control,other results
"O=C([O-])O.[Na+] [Sodium Bicarbonate, Sodium bicarbonate]",7.51,7.48 and 7.39 and 7.58 and 7.59,little to no effect on the drop in pH,7.07,7.09 and 6.97 and 7.1 and 7.12,6.84,6.67 and 6.81 and 6.93 and 6.96,6.52,5.85 and 6.6 and 6.82 and 6.81,6.08,5.08 and 6.21 and 6.49 and 6.53,5.69,5.03 and 5.7 and 5.97 and 6.06,5.22,5 and 5.11 and 5.33 and 5.42,5.01,5 and 4.96 and 5.01 and 5.06,5.00,5.06 and 4.96 and 4.97,statistically significant difference at 1 hour,
"O.O.O=C([O-])CC(O)(CC(=O)[O-])C(=O)[O-].[Na+].[Na+].[Na+] [Sodium Citrate, Sodium citrate dihydrate]",7.50,,little to no effect on the drop in pH,7.05,,6.83,,6.50,,6.00,,5.64,,5.22,,5.00,,4.97,,no statistically significant difference at any time,"pH of the medium (0 hours after treatment, citrate dihydrate): 7.5 and 7.35 and 7.57 and 7.58; pH of the medium (1 hour after treatment, citrate dihydrate): 7.05 and 6.93 and 7.09 and 7.12; pH of the medium (2 hours after treatment, citrate dihydrate): 6.69 and 6.75 and 6.91 and 6.95; pH of the medium (3 hours after treatment, citrate dihydrate): 6.01 and 6.47 and 6.76 and 6.77; pH of the medium (4 hours after treatment, citrate dihydrate): 5.14 and 5.94 and 6.44 and 6.48; pH of the medium (5 hours after treatment, citrate dihydrate): 5.02 and 5.49 and 5.96 and 6.07; pH of the medium (6 hours after treatment, citrate dihydrate): 4.98 and 5.06 and 5.36 and 5.46; pH of the medium (7 hours after treatment, citrate dihydrate): 4.97 and 4.92 and 5.04 and 5.07; pH of the medium (8 hours after treatment, citrate dihydrate): 4.99 and 4.95 and 4.96"
OC[C@@H](O)[C@H](O)[C@@H](O)CO [Xylitol],7.50,7.49 and 7.36 and 7.58 and 7.57,able to slow the pH drop,7.08,7.08 and 7 and 7.12 (2×),6.87,6.72 and 6.82 and 6.97 (2×),6.58,6.19 and 6.57 and 6.77 and 6.8,6.27,5.77 and 6.17 and 6.55 and 6.57,6.00,5.51 and 5.93 and 6.25 and 6.29,5.72,5.23 and 5.55 and 6.05 and 6.06,5.52,5.1 and 5.37 and 5.78 and 5.82,5.45,5.09 and 5.58 and 5.68,"statistically significant difference at 1, 6, 7, and 8 hours",
